Laboratory results: paper PMC12396409, “Screening and hit evaluation of a microbial metabolite library against the pathogenic Plasmodium falciparum and Toxoplasma gondii parasites” (International Journal for Parasitology: Drugs and Drug …, 2025)
Where two headings read alike, the source gives them in different places.

Assays:
[1] = test system: P. falciparum 3D7 parasites; experiment: P. falciparum growth inhibition assay, 1-cycle (72 h treatment), SYBR DNA staining (library screen at 2 μg/mL and dose-response); type: cell-based, Plasmodium falciparum; conditions: for activity at 2 µg/mL: Plasmodium falciparum
[2] = test system: T. gondii RH strain (RH-Tub-eYFP) tachyzoites; experiment: microbe, parasite or virus in culture; type: cell-based, Toxoplasma gondii; conditions: 72 h; for percent parasite growth at 2 µg/mL: Toxoplasma gondii
[3] = test system: P. falciparum 3D7 parasites; experiment: P. falciparum growth inhibition assay, 2-cycle (120 h treatment), delayed-death screen and dose-response; type: cell-based, Plasmodium falciparum; conditions: for activity at 2 µg/mL: Plasmodium falciparum
[4] = P. falciparum, 72 h, screen at 2 μg/mL, replicate 1
[5] = P. falciparum, 72 h, screen at 2 μg/mL, replicate 2
[6] = T. gondii, screen at 2 μg/mL, replicate 1
[7] = T. gondii, screen at 2 μg/mL, replicate 2
[8] = P. falciparum, 120 h, screen at 2 μg/mL, replicate 1
[9] = P. falciparum, 120 h, screen at 2 μg/mL, replicate 2

**Q.** With `CCN(CC)CCS(=O)(=O)[C@@H]1CCN2C(=O)c3coc(n3)CC(=O)C[C@H](O)/C=C(C)/C=C/CNC(=O)/C=C/[C@@H](C)[C@@H](C(C)C)OC(=O)[C@@H]12.CS(=O)(=O)O` [Dalfopristin mesylate, reference compound] as the compound, how does the “1) Growth (%) at 72 h” value ([1]; P. falciparum, 2 μg/mL, 72 h) read?
**A.** 45.58%

**Q.** What about the Pf_72h_%Growth_Rep1 [1, 4] of the same compound?
**A.** 55.22%

**Q.** And the Pf_72h_%Growth_Rep2 [1, 5]?
**A.** 35.94%

**Q.** And the Tg_72h_%Growth_Rep1 [2, 6]?
**A.** 40.17%

**Q.** What about the Tg_72h_%Growth_Rep2 [2, 7] of the same compound?
**A.** 68.18%

**Q.** What about the “2) Growth (%) at 120 h” value ([3]; P. falciparum, 2 μg/mL, 120 h) of the same compound?
**A.** 5.60%

**Q.** What about the Pf_120h_%Growth_Rep1 [3, 8] of the same compound?
**A.** 1.37%

**Q.** And the Pf_120h_%Growth_Rep2 [3, 9]?
**A.** 9.82%

**Q.** What about the “3) Fold change (72 h/120 h)” value ([3]; P. falciparum, growth at 72 h / growth at 120 h, 2 μg/mL) of the same compound?
**A.** 8.1

**Q.** With `CC[C@H](C)[C@H]1C(=O)O[C@H](C(C)C)C(=O)N(C)[C@@H](C(C)C)C(=O)O[C@H](C(C)C)C(=O)N(C)[C@@H](C(C)C)C(=O)O[C@H](C(C)C)C(=O)N1C` [Enniatin B1] as the compound, how does the activity at 2 µg/mL ([1]; 3D7, library screen at 2 μg/mL, 72 h, % growth, replicate 1, read-out: Pf_72h_%Growth_Rep1) read?
**A.** 4.56%

**Q.** And the activity at 2 µg/mL ([1]; 3D7, library screen at 2 μg/mL, 72 h, % growth, replicate 2, read-out: Pf_72h_%Growth_Rep2)?
**A.** 3.05%

**Q.** What about the percent parasite growth at 2 µg/mL ([2]; library screen at 2 μg/mL, % growth, replicate 1, read-out: Tg_72h_%Growth_Rep1) of the same compound?
**A.** 0.26%

**Q.** What about the percent parasite growth at 2 µg/mL ([2]; library screen at 2 μg/mL, % growth, replicate 2, read-out: Tg_72h_%Growth_Rep2) of the same compound?
**A.** 25.7%

**Q.** And the activity at 2 µg/mL ([3]; 3D7, library screen at 2 μg/mL, 120 h, % growth, replicate 1, read-out: Pf_120h_%Growth_Rep1)?
**A.** 5.98%

**Q.** What about the activity at 2 µg/mL ([3]; 3D7, library screen at 2 μg/mL, 120 h, % growth, replicate 2, read-out: Pf_120h_%Growth_Rep2) of the same compound?
**A.** 9.66%

**Q.** What does the source list for `CO[C@H]1C[C@H](O[C@H]2[C@H](C)O[C@@H](O[C@@H]3/C(C)=C/C[C@@H]4C[C@@H](C[C@]5(C=C[C@H](C)[C@@H](C6CCCCC6)O5)O4)OC(=O)C4=C[C@H](C)[C@@H](O)[C@H]5OC/C(=C\C=C[C@@H]3C)[C@@]45O)C[C@@H]2OC)O[C@@H](C)[C@@H]1O` [Doramectin, delta2-]?
**A.** Pf_72h_%Growth_Rep1 ([1]; library screen at 2 μg/mL, 72 h, % growth, replicate 1): 3.28%; Pf_72h_%Growth_Rep2 ([1]; library screen at 2 μg/mL, 72 h, % growth, replicate 2): 1.57%; Tg_72h_%Growth_Rep1 ([2]; library screen at 2 μg/mL, % growth, replicate 1): 85.18%; Tg_72h_%Growth_Rep2 ([2]; library screen at 2 μg/mL, % growth, replicate 2): 104.19%; Pf_120h_%Growth_Rep1 ([3]; library screen at 2 μg/mL, 120 h, % growth, replicate 1): 4.07%; Pf_120h_%Growth_Rep2 ([3]; library screen at 2 μg/mL, 120 h, % growth, replicate 2): 0.97%

**Q.** What does the source list for `COc1cc(-c2oc3c(OC)c(OC)cc(O)c3c(=O)c2OC)ccc1O` [Ternatin]?
**A.** activity at 2 µg/mL ([1]; 3D7, P. falciparum, 72 h, screen at 2 μg/mL, replicate 1, read-out: Pf_72h_%Growth_Rep1): 64%; activity at 2 µg/mL ([1]; 3D7, P. falciparum, 72 h, screen at 2 μg/mL, replicate 2, read-out: Pf_72h_%Growth_Rep2): 81%; percent parasite growth at 2 µg/mL ([2]; T. gondii, screen at 2 μg/mL, replicate 1, read-out: Tg_72h_%Growth_Rep1): 71.2%; percent parasite growth at 2 µg/mL ([2]; T. gondii, screen at 2 μg/mL, replicate 2, read-out: Tg_72h_%Growth_Rep2): 66.7%; activity at 2 µg/mL ([3]; 3D7, P. falciparum, 120 h, screen at 2 μg/mL, replicate 1, read-out: Pf_120h_%Growth_Rep1): 137%; activity at 2 µg/mL ([3]; 3D7, P. falciparum, 120 h, screen at 2 μg/mL, replicate 2, read-out: Pf_120h_%Growth_Rep2): 71.9%

**Q.** What does the source list for `CCCC[C@]1([C@H](/C=C/C(C)=C/C(=O)O)OC(=O)CCC(=O)O)CC[C@]2(CC[C@H](C)[C@@H](C/C=C(C)/C=C/[C@H](O)[C@@H](C)/C=C/C(=O)O)O2)O1` [Reveromycin B]?
**A.** activity at 2 µg/mL ([1]; 3D7, 72 h, P. falciparum, 72 h, parasite screen 2 μg/mL, % growth, replicate 1, read-out: Pf_72h_%Growth_Rep1): 89%; activity at 2 µg/mL ([1]; 3D7, 72 h, P. falciparum, 72 h, parasite screen 2 μg/mL, % growth, replicate 2, read-out: Pf_72h_%Growth_Rep2): 114%; percent parasite growth at 2 µg/mL ([2]; T. gondii, parasite screen 2 μg/mL, % growth, replicate 1, read-out: Tg_72h_%Growth_Rep1): 139%; percent parasite growth at 2 µg/mL ([2]; T. gondii, parasite screen 2 μg/mL, % growth, replicate 2, read-out: Tg_72h_%Growth_Rep2): 87.7%; activity at 2 µg/mL ([3]; 3D7, 120 h, P. falciparum, 120 h, parasite screen 2 μg/mL, % growth, replicate 1, read-out: Pf_120h_%Growth_Rep1): 78.2%; activity at 2 µg/mL ([3]; 3D7, 120 h, P. falciparum, 120 h, parasite screen 2 μg/mL, % growth, replicate 2, read-out: Pf_120h_%Growth_Rep2): 133%

**Q.** With `COc1c(-c2ccccc2)c2ccccc2[nH]c1=O` [BIA-M1149] as the compound, how does the Pf_72h_%Growth_Rep1 ([1]; P. falciparum 3D7, 72 h, parasite screen at 2 μg/mL, % growth, replicate 1) read?
**A.** 89.32%

**Q.** And the Pf_72h_%Growth_Rep2 ([1]; P. falciparum 3D7, 72 h, parasite screen at 2 μg/mL, % growth, replicate 2)?
**A.** 119.11%

**Q.** What about the Tg_72h_%Growth_Rep1 ([2]; T. gondii, parasite screen at 2 μg/mL, % growth, replicate 1) of the same compound?
**A.** 136.04%

**Q.** What about the Tg_72h_%Growth_Rep2 ([2]; T. gondii, parasite screen at 2 μg/mL, % growth, replicate 2) of the same compound?
**A.** 92.92%

**Q.** What about the Pf_120h_%Growth_Rep1 ([3]; P. falciparum 3D7, 120 h, parasite screen at 2 μg/mL, % growth, replicate 1) of the same compound?
**A.** 106.21%

**Q.** And the Pf_120h_%Growth_Rep2 ([3]; P. falciparum 3D7, 120 h, parasite screen at 2 μg/mL, % growth, replicate 2)?
**A.** 123.66%

**Q.** How did the Pf_72h_%Growth_Rep1 [1, 4] turn out when `C/C=C/[C@H]1O[C@@](O)([C@@H](C)[C@H](O)[C@H](C)[C@H]2OC(=O)/C(OC)=C/C(C)=C/[C@@H](C)[C@@H](O)[C@@H](C)[C@@H](O)[C@H](C)C/C(C)=C/C=C/[C@@H]2OC)C[C@@H](O[C@H]2C[C@@H](O)[C@H](OC(N)=O)[C@@H](C)O2)[C@@H]1C` [Concanamycin B] was run?
**A.** 2.18%

**Q.** What about the Pf_72h_%Growth_Rep2 [1, 5] of the same compound?
**A.** 1.46%

**Q.** And the Tg_72h_%Growth_Rep1 [2, 6]?
**A.** -1.62%

**Q.** What about the Tg_72h_%Growth_Rep2 [2, 7] of the same compound?
**A.** 0.33%

**Q.** And the Pf_120h_%Growth_Rep1 [3, 8]?
**A.** -3.38%

**Q.** And the Pf_120h_%Growth_Rep2 [3, 9]?
**A.** 8.50%
